Legend:
[1] = Estimated circulating concentration after oral tonabersat in peanut butter; type: in vivo, Sprague Dawley (SD) rats
Experimental: Tonabersat treatment of light damaged rats—LD rats were randomly assigned to low, middle or high dose of tonabersat (n=7 per group). The mixture of tonabersat in peanut butter was prepared fresh for each experiment. Three oral tonabersat doses were tested (n=7 per group) with follow up to 2 weeks post-injury, and the highest dose group then split with three animals taken for histological analysis, and four animals followed to 3 months post-injury. There was a ten-animal vehicle only control group. The group of rats that were kept for 3 months were maintained in separate cages for drug or vehicle-treated animals, but were kept under the same light conditions. Tonabersat was fed to animals in peanut butter at 0.26 mg/kg (on average 0.08 mg delivered, estimated circulating concentration 10 μM), 0.8 mg/kg (average of 0.24 mg delivered; 30 μM circulating) or 2.4 mg/kg (on average 0.72 mg delivered; 90 μM circulating) following consideration of previous unsuccessful human trial dosing levels. Silberstein S D. Tonabersat, a novel gap-junction modulator for the prevention of migraine. Cephalalgia. 2009; 29 Suppl 2:28-35; Dahlof C G, Hauge A W, Olesen J. Efficacy and safety of tonabersat, a gap-junction modulator, in the acute treatment of migraine: a double-blind, parallel-group, randomized study. Cephalalgia. 2009; 29 Suppl 2:7-16; Goadsby P J, Ferrari M D, Csanyi A, Olesen J, Mills J G, Tonabersat TONSG. Randomized, double-blind, placebo-controlled, proof-of-concept study of the cortical spreading depression inhibiting agent tonabersat in migraine prophylaxis. Cephalalgia. 2009; 29:742-50. […] The treatment groups were known to the investigator at the time of treatment, but groups were then randomized prior to statistical comparison which meant that analysis was conducted without the knowledge of which were treated or control animals. […] Two weeks later animals were again assessed with ERG and OCT and tissue collection proceeded immediately after, except for four rats in the high dose group that were under experimentation for 3 more months.

hyperglycemic rats = assay: OCT in hyperglycemic rat diabetic retinopathy model (aneurysms, layer thickness); type: in vivo, SD rats (spontaneously hyperglycemic strain)
Excerpt: Hyperglycemic Rat Diabetic Retinopathy Model—A spontaneously hyperglycemic strain of SD rats, which developed clinical signs of diabetic retinopathy within 4 weeks of birth were identified and isolated within the Vernon Jansen Animal Research Unit, Faculty of Medical and Health Sciences at the University of Auckland. The identification of these rats presenting with hyperglycemia and microaneurysms provided an opportunity to treat a complex, chronic disease model and assess the treatment effect based upon objective, measurable endpoints, despite lacking precise information on the etiology of the disease. Inbreeding was carried out over three generations and eyes were screened for abnormalities between 4-8 weeks of age. Additional information about these rats is presented as supplementary information. Glucose levels were tested in non-fasting rats (Lee J J, Yi H Y, Yang J W, Shin J S, Kwon J H, Kim C W. Characterization of streptozotocin-induced diabetic rats and pharmacodynamics of insulin formulations. Biosci Biotechnol Biochem. 2003; 67:2396-401) using a Freestyle Optium Glucometer (Abbott Laboratories Ltd., UK) and Freestyle Optium glucose strips.
Ten rats per group were the selected (10 normal SD and 10 hyperglycemic) grown to 5 weeks of age and assessed using OCT and ERG. The hyperglycemic rat group was then split into two subgroups of five, with one subgroup fed tonabersat once daily for 14 days from weeks 5 to 7 at a low dose level of 0.28 mg/kg in 0.5 g peanut butter, with the other subgroup fed 0.5 g peanut butter only. All animals were assessed again using ERG and OCT at 8 weeks of age before euthanizing animals and removing the eyes for immunohistochemical analysis. Data groups were randomized prior to the statistical comparison. In summary, normal SD and hyperglycemic rats were analyzed with OCT and ERG at 5 weeks of age; the hyperglycemic rats were then split into two groups and fed the vehicle or tonabersat for 14 days during weeks 6 and 7 of age. At week 8, animals were again assessed with ERG and OCT and tissues collected for immunohistochemical analysis. Four tonabersat-treated rats were, however, left until 3 months of age before final ERG and OCT and tissue collection.
Evans Blue Dye Assessment of Vessel Leak—To investigate whether micro- and macro-aneurysms in the hyperglycemic rat retinas (observed using OCT) reflect sites of vessel leak, rats were perfused at the age of 3 months with Evans Blue dye as previously described. Cai S, Yang Q, Hou M, Han Q, Zhang H, Wang J, et al. Alpha-Melanocyte-Stimulating Hormone Protects Early Diabetic Retina from Blood-Retinal Barrier Breakdown and Vascular Leakage via MC4R. Cell Physiol Biochem. 2018; 45:505-22. Briefly, Evans Blue dye (30 mg/ml; Sigma-Aldrich, USA) was dissolved in normal saline and filtered. The dye was delivered as an injection into the rat-tail vein of normal SD and hyperglycemic rats at 45 mg/kg and allowed to circulate for 2 hours. Eyes were enucleated while rats were under deep anesthesia and an intracardial injection of 3M KCl was then administered rapidly to euthanize the animals. The posterior segment cups were fixed whole in 4% paraformaldehyde for 30 min and the retinas removed and laid flat. Evans Blue was stimulated at 559 nm wavelength and visualized by its red fluorescence emission using Olympus FluoView FV1000 (Olympus Corporation, Tokyo, Japan). […]

[2] = 0.28 mg/kg once daily 14 days, week 8

In the case of `CC(=O)c1ccc2c(c1)[C@H](NC(=O)c1ccc(F)c(Cl)c1)[C@H](O)C(C)(C)O2` [tonabersat, N-[(3S,4S)-6-acetyl-3-hydroxy-2,2-dimethyl-3,4-dihydrochromen-4-yl]-3-chloro-4-fluorobenzamide], the estimated circulating concentration ([1]; 0.26 mg/kg oral in peanut butter (on average 0.08 mg delivered)) is reported as 10 µM, the estimated circulating concentration ([1]; 0.8 mg/kg oral in peanut butter (average 0.24 mg delivered)) is reported as 30 µM and the estimated circulating concentration ([1]; 2.4 mg/kg oral in peanut butter (on average 0.72 mg delivered)) is reported as 90 µM. The “number and size of microaneurysms after treatment” value (hyperglycemic rats; [2]) was “differences”, the “retinal layer thickness (INL or ONL) or thickness of the choroid, treated vs untreated” value (hyperglycemic rats; [2]) was “no significant difference” and the “hyperreflective spot on OCT after treatment” value (hyperglycemic rats; 0.28 mg/kg once daily for 14 days, 8 weeks) was “barely visible”. For the same compound, the “clinical signs, including the presence of aneurysms” value (hyperglycemic rats; DR model, daily treatment for two weeks) was “reduced” and the “micro- and macro-aneurysms compared to placebo controls” value (hyperglycemic rats; oral, DR model) was “regression”.

— patent US20220401408A1, “COMPOSITIONS AND METHODS FOR RESCUING RETINAL AND CHOROIDAL STRUCTURE AND FUNCTION” (AUCKLAND UNISERVICES LIMITED, priority 2019, published 2022)
